Results: PMC4890880 (ACS infectious diseases, 2016)

test system: HepG2-A16-CD81EGFP cells; details: read-out: Tox_IC50; sheet 2nd round; HepG2 cytotoxicity

Row | Compound | IC50
1 | C[C@@H]1CN([C@H](C)CO)C(=O)c2cccc(NC(=O)c3ccc(-c4nccs4)cc3)c2O[C@@H]1CN(C)C(=O)Nc1ccc(C(F)(F)F)cc1 [BRD-K36757984-001-01-6] | > 10 µM
2 | COc1ccccc1C#Cc1ccc([C@@H]2[C@@H](CO)N3CCCCN(C(=O)C4CCC4)C[C@H]23)cc1 [BRD-K36773541-001-01-9] | > 10 µM
3 | CN1C(=O)c2cc(NC(=O)c3ccc(C(F)(F)F)cc3)ccc2OC[C@H]2O[C@@H](CC(=O)NCc3ccc4c(c3)OCO4)CC[C@H]21 [BRD-K38534329-001-01-1] | 5.49 µM
4 | COc1ccc(C#Cc2ccc([C@@H]3[C@@H](CO)N4CCCCN(C(=O)Nc5cccc(F)c5)C[C@H]34)cc2)cc1 [BRD-K38867404-001-01-3] | > 10 µM
5 | C[C@@H]1CCCCO[C@H](CN(C)S(=O)(=O)c2ccc(F)cc2)[C@@H](C)CN([C@H](C)CO)C(=O)c2cc(N(C)C)ccc2O1 [BRD-K38977317-001-01-6] | > 10 µM
6 | O=C(Nc1cccc(F)c1)N1CCCCN2[C@H](CO)[C@@H](c3ccc(C#Cc4cccnc4)cc3)[C@@H]2C1 [BRD-K43947390-001-01-2] | > 10 µM
7 | O=C(Nc1ccccc1F)N1CCCCN2[C@H](CO)[C@@H](c3ccc(/C=C/c4ccccc4)cc3)[C@H]2C1 [BRD-K46850496-001-01-8] | > 10 µM
8 | CCC(=O)N1CC2(CCN(C(=O)Nc3ccccc3F)CC2)c2c([nH]c3cc(OC)ccc23)[C@@H]1CO [BRD-K48749217-001-01-8] | > 10 µM

same assay, conditions: read-out: Tox_IC50; sheet "2nd round", HepG2 cytotoxicity

Row | Compound | IC50
9 | CC(C)(C)[S@+]([O-])N1Cc2cc(C(=O)NCC(F)(F)F)nc(-c3cccc(-c4cccc(F)c4)c3)c2[C@@H]1CCO [BRD-K14002526-001-01-8] | > 10 µM
10 | COc1ccc(-c2ccc([C@H]3[C@@H](C#N)N(C(=O)NC(C)C)[C@H]3CO)cc2)cc1 [BRD-K15519105-001-01-9] | > 10 µM
11 | O=C(C[C@@H]1C[C@@H]2c3cc(NC(=O)c4ccc5c(c4)OCO5)ccc3O[C@@H]2[C@@H](CO)O1)NCc1ccc(Oc2ccccc2)cc1 [BRD-K16956545-001-01-0] | > 10 µM
12 | COc1ccc2c3c([nH]c2c1)[C@@H](CO)N(S(C)(=O)=O)CC31CCN(C(=O)Nc2ccccc2)CC1 [BRD-K31411295-001-01-9] | > 10 µM
13 | CN1C(=O)c2cc(NC(=O)c3cccc(F)c3)ccc2OC[C@H]2O[C@H](CC(=O)NCC3CCCCC3)CC[C@H]21 [BRD-K31618614-001-02-1] | > 10 µM
14 | CCCNC(=O)N1[C@H](C#N)[C@H](c2ccc(C#Cc3cccc(F)c3)cc2)[C@H]1CO [BRD-K31857539-001-01-9] | > 10 µM
15 | CCCC(=O)Nc1ccc2c(c1)OC[C@@H](C)N(Cc1cc(F)ccc1F)C[C@@H](C)[C@H](OC)CN(C)C2=O [BRD-K36104357-001-01-0] | > 10 µM
16 | CO[C@@H]1CN(C)C(=O)c2ccc(NC(=O)c3ccc4c(c3)OCO4)cc2OC[C@@H](C)N(Cc2ccc3c(c2)OCO3)C[C@H]1C [BRD-K38901607-001-01-5] | > 10 µM
17 | C[C@H]1CCCCO[C@H](CN(C)S(=O)(=O)c2ccccc2)[C@@H](C)CN([C@@H](C)CO)C(=O)c2cc(NC(=O)Nc3ccc4c(c3)OCO4)ccc2O1 [BRD-K40819914-001-01-3] | > 10 µM
18 | O=C(Nc1ccccc1F)N1CCCCN2[C@H](C1)[C@@H](c1ccc(/C=C/c3ccccc3)cc1)[C@@H]2CO [BRD-K41442469-001-01-2] | > 10 µM
19 | O=C(Nc1ccccc1F)N1CCCCN2[C@H](C1)[C@H](c1ccc(/C=C/c3ccccc3)cc1)[C@@H]2CO [BRD-K41549807-001-01-5] | > 10 µM
20 | COc1ccc(-c2ccc([C@H]3[C@@H](C#N)N(C(=O)NC(C)C)[C@@H]3CO)cc2)cc1 [BRD-K42750356-001-01-3] | > 10 µM
21 | C[C@H](CO)N1C[C@H](C)[C@H](CN(C)S(=O)(=O)c2ccccc2)OCCCC[C@H](C)Oc2ccc(NC(=O)Nc3ccc4c(c3)OCO4)cc2C1=O [BRD-K43975729-001-01-5] | > 10 µM
22 | O=C(C[C@H]1C[C@@H]2c3cc(NS(=O)(=O)c4ccc(F)cc4)ccc3O[C@@H]2[C@@H](CO)O1)N1CCc2ccccc2C1 [BRD-K45723650-001-01-0] | > 10 µM
23 | COc1ccc2c3c([nH]c2c1)[C@H](CO)N(S(C)(=O)=O)CC31CCN(C(=O)Nc2ccccc2)CC1 [BRD-K47463456-001-01-7] | > 10 µM
24 | CCCC#Cc1ccc2c(c1)O[C@H](CN(C)Cc1ccccn1)[C@H](C)CN([C@@H](C)CO)S2(=O)=O [BRD-K48766892-001-01-4] | > 10 µM

same assay, conditions: sheet 2nd round; maximal inhibition in dose response

Row | Compound | Tox_max_inhibition (%)
25 | C[C@@H]1CN([C@H](C)CO)C(=O)c2cccc(NC(=O)c3ccc(-c4nccs4)cc3)c2O[C@@H]1CN(C)C(=O)Nc1ccc(C(F)(F)F)cc1 [BRD-K36757984-001-01-6] | 2.49%
26 | COc1ccccc1C#Cc1ccc([C@@H]2[C@@H](CO)N3CCCCN(C(=O)C4CCC4)C[C@H]23)cc1 [BRD-K36773541-001-01-9] | 6%
27 | CN1C(=O)c2cc(NC(=O)c3ccc(C(F)(F)F)cc3)ccc2OC[C@H]2O[C@@H](CC(=O)NCc3ccc4c(c3)OCO4)CC[C@H]21 [BRD-K38534329-001-01-1] | 57%
28 | COc1ccc(C#Cc2ccc([C@@H]3[C@@H](CO)N4CCCCN(C(=O)Nc5cccc(F)c5)C[C@H]34)cc2)cc1 [BRD-K38867404-001-01-3] | 4%
29 | C[C@@H]1CCCCO[C@H](CN(C)S(=O)(=O)c2ccc(F)cc2)[C@@H](C)CN([C@H](C)CO)C(=O)c2cc(N(C)C)ccc2O1 [BRD-K38977317-001-01-6] | 6%
30 | O=C(Nc1cccc(F)c1)N1CCCCN2[C@H](CO)[C@@H](c3ccc(C#Cc4cccnc4)cc3)[C@@H]2C1 [BRD-K43947390-001-01-2] | 5.34%
31 | O=C(Nc1ccccc1F)N1CCCCN2[C@H](CO)[C@@H](c3ccc(/C=C/c4ccccc4)cc3)[C@H]2C1 [BRD-K46850496-001-01-8] | 11%
32 | CCC(=O)N1CC2(CCN(C(=O)Nc3ccccc3F)CC2)c2c([nH]c3cc(OC)ccc23)[C@@H]1CO [BRD-K48749217-001-01-8] | 5.53%

same assay, conditions: sheet "2nd round"

Row | Compound | Tox_max_inhibition (%)
33 | CC(C)(C)[S@+]([O-])N1Cc2cc(C(=O)NCC(F)(F)F)nc(-c3cccc(-c4cccc(F)c4)c3)c2[C@@H]1CCO [BRD-K14002526-001-01-8] | 37%
34 | COc1ccc(-c2ccc([C@H]3[C@@H](C#N)N(C(=O)NC(C)C)[C@H]3CO)cc2)cc1 [BRD-K15519105-001-01-9] | 38%
35 | O=C(C[C@@H]1C[C@@H]2c3cc(NC(=O)c4ccc5c(c4)OCO5)ccc3O[C@@H]2[C@@H](CO)O1)NCc1ccc(Oc2ccccc2)cc1 [BRD-K16956545-001-01-0] | 5%
36 | COc1ccc2c3c([nH]c2c1)[C@@H](CO)N(S(C)(=O)=O)CC31CCN(C(=O)Nc2ccccc2)CC1 [BRD-K31411295-001-01-9] | 17%
37 | CN1C(=O)c2cc(NC(=O)c3cccc(F)c3)ccc2OC[C@H]2O[C@H](CC(=O)NCC3CCCCC3)CC[C@H]21 [BRD-K31618614-001-02-1] | 27%
38 | CCCNC(=O)N1[C@H](C#N)[C@H](c2ccc(C#Cc3cccc(F)c3)cc2)[C@H]1CO [BRD-K31857539-001-01-9] | 6%
39 | CCCC(=O)Nc1ccc2c(c1)OC[C@@H](C)N(Cc1cc(F)ccc1F)C[C@@H](C)[C@H](OC)CN(C)C2=O [BRD-K36104357-001-01-0] | 18%
40 | CO[C@@H]1CN(C)C(=O)c2ccc(NC(=O)c3ccc4c(c3)OCO4)cc2OC[C@@H](C)N(Cc2ccc3c(c2)OCO3)C[C@H]1C [BRD-K38901607-001-01-5] | 11%
41 | C[C@H]1CCCCO[C@H](CN(C)S(=O)(=O)c2ccccc2)[C@@H](C)CN([C@@H](C)CO)C(=O)c2cc(NC(=O)Nc3ccc4c(c3)OCO4)ccc2O1 [BRD-K40819914-001-01-3] | 8.49%
42 | O=C(Nc1ccccc1F)N1CCCCN2[C@H](C1)[C@@H](c1ccc(/C=C/c3ccccc3)cc1)[C@@H]2CO [BRD-K41442469-001-01-2] | 8.49%
43 | O=C(Nc1ccccc1F)N1CCCCN2[C@H](C1)[C@H](c1ccc(/C=C/c3ccccc3)cc1)[C@@H]2CO [BRD-K41549807-001-01-5] | 10%
44 | COc1ccc(-c2ccc([C@H]3[C@@H](C#N)N(C(=O)NC(C)C)[C@@H]3CO)cc2)cc1 [BRD-K42750356-001-01-3] | 10%
45 | C[C@H](CO)N1C[C@H](C)[C@H](CN(C)S(=O)(=O)c2ccccc2)OCCCC[C@H](C)Oc2ccc(NC(=O)Nc3ccc4c(c3)OCO4)cc2C1=O [BRD-K43975729-001-01-5] | 7%
46 | O=C(C[C@H]1C[C@@H]2c3cc(NS(=O)(=O)c4ccc(F)cc4)ccc3O[C@@H]2[C@@H](CO)O1)N1CCc2ccccc2C1 [BRD-K45723650-001-01-0] | -1%
47 | COc1ccc2c3c([nH]c2c1)[C@H](CO)N(S(C)(=O)=O)CC31CCN(C(=O)Nc2ccccc2)CC1 [BRD-K47463456-001-01-7] | 13%
48 | CCCC#Cc1ccc2c(c1)O[C@H](CN(C)Cc1ccccn1)[C@H](C)CN([C@@H](C)CO)S2(=O)=O [BRD-K48766892-001-01-4] | 7%
